In test [1] the target is T1, XIAP BIR3 (Homo sapiens, UniProt P98170).
T1 construct: His-BIR3 (241-356, XIAP)
The test can be described thus: XIAP-BIR3/SMAC Homogeneous Time Resolved Fluorescence (HTRF) Assay. As to conditions: 1 nM N-His-BIR3 (241-356, XIAP), 5 nM fluorescein labeled SMAC peptide; HTRF signal; read-out: XIAP BIR3 IC50. The class given is binding. In a few lines:
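Competition HTRF between XIAP-BIR3 and SMAC; reaction 60 min at room temperature, then anti-6×His-terbium Fab detection for a further 30 min.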

The target in test [2] is T2, XIAP BIR2-3 (Homo sapiens, UniProt P98170, C202A/C213G).
T2 construct: His-BIR2-3 (125-356, C202A/C213G, XIAP)
T2 sequence (P98170 125-356 C202A/C213G): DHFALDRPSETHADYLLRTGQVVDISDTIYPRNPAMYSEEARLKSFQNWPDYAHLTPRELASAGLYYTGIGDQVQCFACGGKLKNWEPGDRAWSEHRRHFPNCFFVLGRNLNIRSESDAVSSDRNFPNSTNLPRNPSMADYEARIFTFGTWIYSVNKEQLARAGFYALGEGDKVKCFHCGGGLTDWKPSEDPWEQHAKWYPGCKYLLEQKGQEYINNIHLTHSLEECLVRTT
The test can be described thus: XIAP-BIR2-3 dimeric SMAC Peptide Homogeneous Time Resolved Fluorescence (HTRF) Assay. The class given is binding. Conditions: 0.5 nM N-His-BIR2-3 (125-356, C202A/C213G, XIAP), 20 nM fluorescein labeled dimeric SMAC peptide; HTRF signal; read-out: XIAP BIR2-3 IC50. As to the method: B. […] Assays were performed in black, flat-bottom, 384-well plates. […] Compounds were dissolved at 3 mM in dimethylsulfoxide (DMSO) and evaluated at eleven serially diluted concentrations. IC50 and Ki values were derived by non-linear regression analysis.
In general terms: Time-resolved FRET reads energy transfer from a long-lived donor to a nearby acceptor.

As a reminder, the IC50 is the midpoint of a concentration-inhibition curve.

T1 sequence (P98170 241-356): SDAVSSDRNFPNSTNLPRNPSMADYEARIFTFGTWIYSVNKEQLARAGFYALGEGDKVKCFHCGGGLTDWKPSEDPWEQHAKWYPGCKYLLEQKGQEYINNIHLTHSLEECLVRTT

Take `CN[C@@H](C)C(=O)N[C@H](C(=O)N1C[C@@H](c2ccc3c(c2)CN(C(=O)[C@@H](NC(=O)[C@H](C)NC)C(C)(C)SCC(=O)NCCO)[C@H](C(=O)N[C@@H]2CCCc4ccccc42)C3)C[C@H]1C(=O)N[C@@H]1CCCc2ccccc21)C(C)(C)C` [Example 29, (S)-7-((3R,5S)-1-((S)-3,3-Dimethyl-2-((S)-2-(methylamino)propanamido)butanoyl)-5-(((R)-1,2,3,4-tetrahydronaphthalen-1-yl)carbamoyl)pyrrolidin-3-yl)-2-((R)-3-((2-((2-hydroxyethyl)amino)-2-oxoethyl)thio)-3-methyl-2-((S)-2-(methylamino)propanamido)butanoyl)-N—((R)-1,2,3,4-tetrahydronaphthalen-1-yl)-1,2,3,4-tetrahydroisoquinoline-3-carboxamide]: the IC50 in test [1] was found to be 11.7 nM; in test [2] it was 0.8 nM.
On the same counts, the results for `CN[C@@H](C)C(=O)N[C@H](C(=O)N1C[C@@H](c2ccc3c(c2)CN(C(=O)[C@@H](NC(=O)[C@H](C)NC)C(C)(C)SCC(=O)N(C)C)[C@H](C(=O)N[C@@H]2CCCc4ccccc42)C3)C[C@H]1C(=O)N[C@@H]1CCCc2ccccc21)C(C)(C)C` [Example 30, (S)-7-((3R,5S)-1-((S)-3,3-Dimethyl-2-((S)-2-(methylamino)propanamido)butanoyl)-5-(((R)-1,2,3,4-tetrahydronaphthalen-1-yl)carbamoyl)pyrrolidin-3-yl)-2-((R)-3-((2-(dimethylamino)-2-oxoethyl)thio)-3-methyl-2-((S)-2-(methylamino)propanamido)butanoyl)-N-((R)-1,2,3,4-tetrahydronaphthalen-1-yl)-1,2,3,4-tetrahydroisoquinoline-3-carboxamide] are 3.9 nM and 5.7 nM.
Regarding `CN[C@@H](C)C(=O)N[C@H](C(=O)N1C[C@@H](c2ccc3c(c2)CN(C(=O)[C@@H](NC(=O)[C@H](C)NC)C(C)(C)SCC(=O)NC(CO)CO)[C@H](C(=O)N[C@@H]2CCCc4ccccc42)C3)C[C@H]1C(=O)N[C@@H]1CCCc2ccccc21)C(C)(C)C` [Example 31, (S)-2-((R)-3-((2-((1,3-Dihydroxypropan-2-yl)amino)-2-oxoethyl)thio)-3-methyl-2-((S)-2-(methylamino)propanamido)butanoyl)-7-((3R,5S)-1-((S)-3,3-dimethyl-2-((S)-2-(methylamino)propanamido)butanoyl)-5-(((R)-1,2,3,4-tetrahydronaphthalen-1-yl)carbamoyl)pyrrolidin-3-yl)-N-((R)-1,2,3,4-tetrahydronaphthalen-1-yl)-1,2,3,4-tetrahydroisoquinoline-3-carboxamide], the IC50 in test [1] came to 13.8 nM; in test [2] it was 1.2 nM.
`CN[C@@H](C)C(=O)N[C@H](C(=O)N1CC(c2ccc3c(c2)CN(C(=O)[C@@H](NC(=O)[C@H](C)NC)C(C)(C)SCC(=O)O)[C@H](C(=O)NC2CCCc4ccccc42)C3)C[C@H]1C(=O)NC1CCCc2ccccc21)C(C)(C)C` (stereo partly drawn) [Example 32, 2-(((R)-4-((S)-7-((3R,5S)-1-((S)-3,3-Dimethyl-2-((S)-2-(methylamino)propanamido)butanoyl)-5-(((R)-1,2,3,4-tetrahydronaphthalen-1-yl)carbamoyl)pyrrolidin-3-yl)-3-(((R)-1,2,3,4-tetrahydronaphthalen-1-yl)carbamoyl)-3,4-dihydroisoquinolin-2(1H)-yl)-2-methyl-3-((S)-2-(methylamino)propanamido)-4-oxobutan-2-yl)thio)acetic acid, 2TFA]: the IC50 in test [1] came to 8.7 nM; in test [2] it was 1.9 nM.
Consider `CN[C@@H](C)C(=O)N[C@H](C(=O)N1C[C@@H](c2ccc3c(c2)CN(C(=O)[C@@H](NC(=O)[C@H](C)NC)C(C)(C)C)[C@H](C(=O)N[C@@H]2CCOc4ccccc42)C3)C[C@H]1C(=O)N[C@@H]1CCCc2ccccc21)C(C)(C)C` [Example 33, (S)—N—((R)—Chroman-4-yl)-2-((S)-3,3-dimethyl-2-((S)-2-(methylamino)propanamido)butanoyl)-7-((3R,5S)-1-((S)-3,3-dimethyl-2-((S)-2-(methylamino)propanamido)butanoyl)-5-(((R)-1,2,3,4-tetrahydronaphthalen-1-yl)carbamoyl)pyrrolidin-3-yl)-1,2,3,4-tetrahydroisoquinoline-3-carboxamide], for which the IC50 worked out at 1.8 nM in test [1] and 1.7 nM in test [2].
As to `CN[C@@H](C)C(=O)N[C@H](C(=O)N1Cc2cc([C@H]3C[C@@H](C(=O)N[C@@H]4CCCc5ccccc54)N(C(=O)[C@@H](NC(=O)[C@H](C)NC)C(C)(C)C)C3)ccc2C[C@H]1C(=O)N[C@H](CO)Cc1ccccc1)C(C)(C)C` [Example 34, (S)-2-((S)-3,3-Dimethyl-2-((S)-2-(methylamino)propanamido)butanoyl)-7-((3R,5S)-1-((S)-3,3-dimethyl-2-((S)-2-(methylamino)propanamido)butanoyl)-5-(((R)-1,2,3,4-tetrahydronaphthalen-1-yl)carbamoyl)pyrrolidin-3-yl)-N-((S)-1-hydroxy-3-phenylpropan-2-yl)-1,2,3,4-tetrahydroisoquinoline-3-carboxamide], the IC50 in test [1] stood at 4.8 nM; in test [2], 7 nM.
Consider `CN[C@@H](C)C(=O)N[C@H](C(=O)N1Cc2cc([C@H]3C[C@@H](C(=O)N[C@@H]4CCCc5ccccc54)N(C(=O)[C@@H](NC(=O)[C@H](C)NC)C(C)(C)C)C3)ccc2C[C@H]1C(=O)N[C@H](CO)c1ccccc1F)C(C)(C)C` [Example 35, (S)-2-((S)-3,3-Dimethyl-2-((S)-2-(methylamino)propanamido)butanoyl)-7-((3R,5S)-1-((S)-3,3-dimethyl-2-((S)-2-(methylamino)propanamido)butanoyl)-5-(((R)-1,2,3,4-tetrahydronaphthalen-1-yl)carbamoyl)pyrrolidin-3-yl)-N-((S)-1-(2-fluorophenyl)-2-hydroxyethyl)-1,2,3,4-tetrahydroisoquinoline-3-carboxamide], for which the IC50 in test [1] worked out at 2.5 nM; in test [2] it was 1.3 nM.
For the compound `CN[C@@H](C)C(=O)N[C@H](C(=O)N1Cc2cc([C@H]3C[C@@H](C(=O)N[C@@H]4CCCc5ccccc54)N(C(=O)[C@@H](NC(=O)[C@H](C)NC)C(C)(C)C)C3)ccc2C[C@H]1C(=O)N[C@@H](CO)c1ccccc1F)C(C)(C)C` [Example 36, (S)-2-((S)-3,3-Dimethyl-2-((S)-2-(methylamino)propanamido)butanoyl)-7-((3R,5S)-1-((S)-3,3-dimethyl-2-((S)-2-(methylamino)propanamido)butanoyl)-5-(((R)-1,2,3,4-tetrahydronaphthalen-1-yl)carbamoyl)pyrrolidin-3-yl)-N-((R)-1-(2-fluorophenyl)-2-hydroxyethyl)-1,2,3,4-tetrahydroisoquinoline-3-carboxamide], the IC50 was 3.3 nM in test [1] and 1.7 nM in test [2].
`CN[C@@H](C)C(=O)N[C@H](C(=O)N1Cc2cc([C@H]3C[C@@H](C(=O)N[C@@H]4CCCc5ccccc54)N(C(=O)[C@@H](NC(=O)[C@H](C)NC)C(C)(C)C)C3)ccc2C[C@H]1C(=O)N[C@@H]1CCCc2cc(OC)ccc21)C(C)(C)C` [Example 37, (S)-2-((S)-3,3-Dimethyl-2-((S)-2-(methylamino)propanamido)butanoyl)-7-((3R,5S)-1-((S)-3,3-dimethyl-2-((S)-2-(methylamino)propanamido)butanoyl)-5-(((R)-1,2,3,4-tetrahydronaphthalen-1-yl)carbamoyl)pyrrolidin-3-yl)-N-((R)-6-methoxy-1,2,3,4-tetrahydronaphthalen-1-yl)-1,2,3,4-tetrahydroisoquinoline-3-carboxamide]: the IC50 in test [1] came to 2.9 nM; in test [2], 1.8 nM.
Consider `CN[C@@H](C)C(=O)N[C@H](C(=O)N1Cc2cc([C@H]3C[C@@H](C(=O)N[C@@H]4CCCc5ccccc54)N(C(=O)[C@@H](NC(=O)[C@H](C)NC)C(C)(C)C)C3)ccc2C[C@H]1C(=O)Nc1cc(C)nn1-c1ccccc1)C(C)(C)C` [Example 38, (S)-2-((S)-3,3-Dimethyl-2-((S)-2-(methylamino)propanamido)butanoyl)-7-((3R,5S)-1-((S)-3,3-dimethyl-2-((S)-2-(methylamino)propanamido)butanoyl)-5-(((R)-1,2,3,4-tetrahydronaphthalen-1-yl)carbamoyl)pyrrolidin-3-yl)-N-(3-methyl-1-phenyl-1H-pyrazol-5-yl)-1,2,3,4-tetrahydroisoquinoline-3-carboxamide], for which the half-inhibitory concentration (IC50) in test [1] is 3.2 nM; in test [2] it was 1.8 nM.
On the same counts, the results for `CN[C@@H](C)C(=O)N[C@H](C(=O)N1Cc2cc([C@H]3C[C@@H](C(=O)N[C@@H]4CCCc5ccccc54)N(C(=O)[C@@H](NC(=O)[C@H](C)NC)C(C)(C)C)C3)ccc2C[C@H]1C(=O)N[C@H](COC)Cc1ccccc1)C(C)(C)C` [Example 39, (S)-2-((S)-3,3-Dimethyl-2-((S)-2-(methylamino)propanamido)butanoyl)-7-((3R,5S)-1-((S)-3,3-dimethyl-2-((S)-2-(methylamino)propanamido)butanoyl)-5-(((R)-1,2,3,4-tetrahydronaphthalen-1-yl)carbamoyl)pyrrolidin-3-yl)-N-((S)-1-methoxy-3-phenylpropan-2-yl)-1,2,3,4-tetrahydroisoquinoline-3-carboxamide] are 7.2 nM and 5.6 nM.

For the origin of these results see patent US8889712B2, “IAP antagonists” (Bristol-Myers Squibb Company, priority 2012, dated 2014).
